Source: patent publication US20190202836A1, “SELECTIVE DUAL INHIBITORS OF PI3 DELTA AND GAMMA PROTEIN KINASES” (Rhizen Pharmaceuticals SA, priority 2014, published 2019)

Tests used:
[1] = target: PI3Kγ (Homo sapiens, UniProt P48736); assay: Assay 1: Fluorescent (HTRF) determination of PI3 kinase enzyme activity, PI3Kγ; type: biochemical; conditions: read-out: IC50 (nM) PI3Kγ
Description: Phosphoinositide 3 kinases (PI3K) belong to a class of lipid kinases that play a critical role in the regulation of several key cellular processes. The PI3K are capable of phosphorylating the 3-hydroxy position of phosphoinositols thereby generating second messengers involved in downstream signaling events. The homogenous time resolved fluorescence (HTRF) assay allows detection of 3,4,5-triphosphate (PIPS) formed as a result of phosphorylation of phosphotidylinositol 4,5-biphosphate (PIP2) by PI3K isoforms such as α, β, γ or δ.
PI3K isoform activity for α, β, γ or δ was determined using a PI3K human HTRF™ Assay Kit (Millipore, Billerica, Mass.) with modifications. All incubations were carried out at room temperature. 0.5 μl of 40× inhibitor (in 100% DMSO) or 100% DMSO were added to each well of a 384-well white plate (Greiner Bio-One, Monroe, N.C.) containing 14.5 μl 1× reaction buffer/PIP2 (10 mM MgCl2, 5 mM DTT, 1.38 μM PIP2) mix with or without enzyme, followed by 5 μl/well of 400 μM ATP and incubated for an additional 30 minutes. The reaction was terminated by adding 5 μl/well stop solution (Millipore, Billerica, Mass.). 5 μl of detection mix (Millipore, Billerica, Mass.) was then added to each well and incubated for 6-18 hours in the dark. HRTF ratio was measured on a microplate reader (BMG Labtech., Germany) at an excitation wavelength of 337 nm and emission wavelengths of 665 and 615 nm with an integration time of 400 msec counting delay of 50 msec.

[2] = test system: IL-4; assay: Assay 6A: Cytokine assay in human PBMC, PHA induced IL-4; type: cell-based; conditions: PHA 20 μg/ml, 48 hours, 2-3 independent experiments, read-out: EC50, antigen-induced IL-4
Protocol: (§1) The objective of this study was to assess the inhibitory potential of Compound A1 on antigen-induced cytokine release in human PBMC
(§2) • Heparinized human whole blood was diluted 1:1 with PBS, over laid on leukocyte separation medium and centrifuged at 400 g for 40 minutes. • Buffy layer was removed and washed with PBS • 0.15*10^6 of PBMCs were plated in 100 μl per well in RPMI media and incubated for 2 h. • 50 μl of 3× of the compound dilution in media was added and incubated for 15 min. • TNFα—induced with 50 μl of LPS in RPMI such that final concentration was 1 μg/ml. Supernatant was collected at 6 hours. • IL-2-induced with 50 μl of PHA in RPMI such that final concentration was 20 μg/ml. Supernatant was collected at 24 hours. • IL-4-induced with 50 μl of PHA in RPMI such that final concentration was 20 μg/ml.
(§3) EC50 values were calculated from 2-3 independent experiments.

[3] = test system: mouse whole blood B-cell proliferation (CD45R); assay: Assay 6B: Inhibition of LPS induced CD45R in mouse whole blood; type: cell-based; conditions: diluted mouse whole blood, 72 hours, read-out: EC50, inhibition of LPS-induced mouse whole blood B-cell proliferation (CD45R expression)
Protocol: The effect of Compound A1 on modulating B-cell receptor (BCR)-activated proliferation of human or mouse B-lymphocytes was determined. CD19 is a protein present on B cells from the earliest recognizable B-lineage cells during development to B-cell blasts but is however lost on maturation to plasma cells. LPS is an endotoxin and a major component of environmental microbes with a potent mitogenic activity on B-cells via the […].
Briefly, diluted mouse whole blood was treated with of DMSO or desired concentrations of Compound A1. Samples were induced with LPS 15 minutes after compound addition, and incubated for 72 hours at 37° C. and 5% CO2. Cells positive for CD45 and CD45R were determined by flow cytometry. Data are expressed as percentage CD45R positive cells in the total population.

[4] = test system: IL-2; assay: Assay 6A: Cytokine assay in human PBMC, PHA induced IL-2; type: cell-based; conditions: PHA 20 μg/ml, 24 hours, 2-3 independent experiments, read-out: EC50, antigen-induced IL-2
Protocol: as §1, §2, §3

[5] = test system: male Balb/c mice; assay: Assay 13: Imiquimod induced plaque psoriasis in Balb/c mice model; type: in vivo; conditions: imiquimod induced psoriasis, 3, 10, 30 mg/kg oral, compared to the control group
Protocol: Imiquimod (IMQ) is a ligand for TLR7 and TLR8, originally used for the treatment of non-melanoma skin cancers. […] Animals (male Balb/c mice) were acclimatized for seven days prior to the start of the experiment. Animals were randomly distributed to various groups based on their body weights. On day 0, the back skin of the mice was shaved by topical application of hair removal cream. On day 1, mice were administered the test compound or vehicle by the oral route and after 1 hour the […] received a topical application of 62.5 mg of commercially available IMQ cream (5%; Beselna Cream; Mochida Pharmaceuticals, Tokyo, Japan) on the shaved back skin. The mice were treated with topical application of imiquimod for the next 5 consecutive days, one hour after test compound or vehicle administration. Animals were allowed to dry for one hour before returning to their cages after topical application on every day. Four hours after the final application of IMQ cream, the mice were killed and skin samples were obtained. Back skin thickness was measured using dial thickness gauge. After measuring skin thickness, skin samples were fixed in 10% neutral buffered formalin solution and embedded in paraffin. Deparaffinised sections were stained with hematoxylin-eosin (HE). Epidermal thickness was quantified by averaging the values of five independent fields per section. To score the severity of inflammation of the back skin, an objective scoring system was used based on the human clinical Psoriasis Area and Severity Index (PASI). Erythema, scaling, and thickening were scored independently on a scale from 0 to 4: 0=none; 1=slight; 2=moderate; 3=marked; and 4=very marked.

[6] = Oral pharmacokinetics in rats; type: in vivo; conditions: Rat, 10 mg/kg
Protocol: The oral bioavailability of Compound A1 (free base) was evaluated in rats and mice. The protocol for the pharmacokinetics studies in rat is provided below.
All animals were fasted overnight (12 hours) before dosing and continued till 4.0 hours after administration of test item. Test item formulations were prepared in 1% Tween 80 and 99% media (0.5% Methyl cellulose, 4000cPs, pH 2.2). The blood samples (150 μL from each animal) were collected from the orbital sinus, and placed into a micro centrifuge tube containing disodium EDTA as an anticoagulant. Blood samples were centrifuged immediately with a speed of 1000 g for 10 min at 4° C. and separated plasma samples were frozen at below −80° C. and stored until analysis. The concentrations of test item in all formulations were analyzed by HPLC. The plasma concentrations of test item in all samples were analyzed by LC-MS/MS. Pharmacokinetic parameters (Cmax, AUC0-t, Tmax, and t^1/2) were estimated by using WinNonlin software. Results are provided in Table 3 for Compound A, A1, and Example 128 of WO 2012/151525 in rats and Compound A1 in mice.

[7] = Metabolic stability in dog liver microsomes; type: in vitro ADME

Sequence of PI3Kγ (P48736 whole entry, canonical isoform): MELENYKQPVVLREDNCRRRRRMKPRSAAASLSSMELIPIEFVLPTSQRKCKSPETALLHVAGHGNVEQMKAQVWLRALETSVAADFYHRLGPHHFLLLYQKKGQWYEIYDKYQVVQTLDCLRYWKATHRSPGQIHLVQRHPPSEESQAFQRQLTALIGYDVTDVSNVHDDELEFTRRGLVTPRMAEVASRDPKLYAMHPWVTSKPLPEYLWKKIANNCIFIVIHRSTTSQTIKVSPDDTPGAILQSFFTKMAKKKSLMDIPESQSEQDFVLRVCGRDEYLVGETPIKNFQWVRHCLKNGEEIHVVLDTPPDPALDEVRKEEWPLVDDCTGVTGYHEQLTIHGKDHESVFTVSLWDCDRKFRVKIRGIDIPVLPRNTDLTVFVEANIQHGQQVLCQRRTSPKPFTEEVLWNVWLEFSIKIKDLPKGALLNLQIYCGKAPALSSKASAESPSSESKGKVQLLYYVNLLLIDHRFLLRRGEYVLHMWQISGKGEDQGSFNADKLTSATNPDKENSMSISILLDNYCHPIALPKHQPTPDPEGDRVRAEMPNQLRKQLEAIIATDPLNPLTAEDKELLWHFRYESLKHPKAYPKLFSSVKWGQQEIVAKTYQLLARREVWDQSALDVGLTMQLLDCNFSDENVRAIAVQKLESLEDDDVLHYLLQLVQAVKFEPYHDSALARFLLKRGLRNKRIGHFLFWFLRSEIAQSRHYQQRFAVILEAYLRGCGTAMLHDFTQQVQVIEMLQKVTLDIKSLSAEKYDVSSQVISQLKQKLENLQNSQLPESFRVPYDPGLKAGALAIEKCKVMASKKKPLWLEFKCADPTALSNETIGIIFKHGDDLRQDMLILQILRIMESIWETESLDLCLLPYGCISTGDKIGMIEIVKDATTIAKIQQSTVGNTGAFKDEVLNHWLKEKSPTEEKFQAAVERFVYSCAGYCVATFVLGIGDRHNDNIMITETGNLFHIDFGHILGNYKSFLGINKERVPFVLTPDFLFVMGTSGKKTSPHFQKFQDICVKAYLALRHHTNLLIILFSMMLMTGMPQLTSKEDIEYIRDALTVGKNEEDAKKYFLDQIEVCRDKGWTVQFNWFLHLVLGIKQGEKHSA

COc1ccc(-c2nn([C@@H](C)c3oc4cccc(F)c4c(=O)c3-c3cccc(F)c3)c3ncnc(N)c23)cc1NS(C)(=O)=O [Compound A1, (S)—N-(5-(4-amino-1-(1-(5-fluoro-3-(3-fluorophenyl)-4-oxo-4H-chromen-2-yl)ethyl)-1H-pyrazolo[3,4-d]pyrimidin-3-yl)-2-methoxyphenyl)methanesulfonamide]
IC50 [1]: 48.7 nM | EC50 [2]: 3.5 nM | EC50 [3]: 128 nM | EC50 [4]: 9.5 nM | back skin thickness [5]: reduced | erythema [5]: reduced | scaling [5]: reduced | fold increase in AUC0-t as compared to Example 128 of WO 2012/151525 [6]: 48 fold | fold increase in Cmax as compared to Example 128 of WO 2012/151525 [6]: ~16 fold | fold increase in t1/2 as compared to Example 128 of WO 2012/151525 [6]: ~1.6 fold | AUC(0-t) ([6]; plasma): 97.8 µM·h | Cmax ([6]; plasma): 11.4 µM | Tmax ([6]; plasma): 1.83 h | half-life ([6]; plasma): 2.45 h | Metabolic stability in liver microsomes (percent parent compound remaining), Dog [7]: 83.5%
